Results taken from patent US9242970B2 (ACTELION PHARMACEUTICALS LTD., priority 2010, dated 2016).
Read-outs that look alike come from different tables or passages of the source.

How the values were obtained:
human orexin-2 receptor = human orexin-2 receptor (Homo sapiens (Human), UniProt O43614); assay: In vitro assay: intracellular calcium measurements (FLIPR), antagonistic activity; format: cell-based; details: CHO cells, 3 nM orexin-A, marked values are geometric means of n = 2-6, read-out: IC50 OX2
human orexin-2 receptor, sequence (O43614 whole entry): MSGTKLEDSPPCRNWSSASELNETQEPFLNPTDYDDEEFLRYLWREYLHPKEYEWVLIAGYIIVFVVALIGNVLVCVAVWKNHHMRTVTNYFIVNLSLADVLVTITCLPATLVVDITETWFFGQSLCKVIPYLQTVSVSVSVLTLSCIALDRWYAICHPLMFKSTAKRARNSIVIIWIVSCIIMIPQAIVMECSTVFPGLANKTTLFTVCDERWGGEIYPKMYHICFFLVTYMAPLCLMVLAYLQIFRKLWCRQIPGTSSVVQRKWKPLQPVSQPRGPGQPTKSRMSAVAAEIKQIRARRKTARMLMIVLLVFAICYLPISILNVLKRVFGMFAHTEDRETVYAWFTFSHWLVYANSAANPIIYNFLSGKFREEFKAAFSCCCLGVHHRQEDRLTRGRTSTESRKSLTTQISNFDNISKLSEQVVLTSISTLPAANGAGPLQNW

human orexin-1 receptor = human orexin-1 receptor (Homo sapiens (Human), UniProt O43613); assay: as above; format: cell-based; details: CHO cells, 3 nM orexin-A, marked values are geometric means of n = 2-6, read-out: IC50 OX1
human orexin-1 receptor, sequence (O43613 whole entry): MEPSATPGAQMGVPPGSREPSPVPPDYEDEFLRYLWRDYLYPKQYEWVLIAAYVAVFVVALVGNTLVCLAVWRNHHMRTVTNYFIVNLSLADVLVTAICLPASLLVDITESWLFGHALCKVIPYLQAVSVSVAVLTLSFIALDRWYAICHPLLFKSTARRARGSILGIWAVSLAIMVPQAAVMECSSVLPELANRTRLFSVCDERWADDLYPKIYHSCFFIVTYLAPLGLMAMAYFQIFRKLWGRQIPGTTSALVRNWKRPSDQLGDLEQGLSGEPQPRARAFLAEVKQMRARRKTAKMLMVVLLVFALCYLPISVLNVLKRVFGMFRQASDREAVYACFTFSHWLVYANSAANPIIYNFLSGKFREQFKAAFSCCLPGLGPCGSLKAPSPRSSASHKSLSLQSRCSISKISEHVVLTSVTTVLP

[1] = compound incubation time of 10 min

`COc1cccc(OC)c1C1CC(C)C(=O)N1Cc1cccc(-c2ncccn2)c1` (stereo not shown) [Example 142, 5-(2,6-dimethoxyphenyl)-3-methyl-1-(3-(pyrimidin-2-yl)benzyl)pyrrolidin-2-one] was tested, and the IC50 (human orexin-2 receptor; compound incubation 120 min) was 40 nM and the IC50 (human orexin-1 receptor; compound incubation 120 min) was 11 nM.
`COc1cc(F)cc(OC)c1C1CCCC(=O)N1Cc1cccc(-c2ccccc2)c1` (stereo not shown) [Example 234, 1-([1,1′-biphenyl]-3-ylmethyl)-6-(4-fluoro-2,6-dimethoxyphenyl)piperidin-2-one] gave an IC50 (human orexin-2 receptor; compound incubation 120 min) of 232 nM and an IC50 (human orexin-1 receptor; compound incubation 120 min) of 262 nM.
Compound `O=C1CCC(c2ccccc2-c2ccccc2)N1Cc1cccc(-c2ccccc2)c1` (stereo not shown) [Example 285, 5-([1,1′-biphenyl]-2-yl)-1-([1,1′-biphenyl]-3-ylmethyl)pyrrolidin-2-one] has an IC50 (human orexin-2 receptor; compound incubation 120 min) of 533 nM and an IC50 (human orexin-1 receptor; compound incubation 120 min) of 243 nM.
With `COc1cccc(OC)c1C1CCCCC(=O)N1Cc1ccnc(-c2ccccc2)c1` (stereo not shown) [Example 81, 7-(2,6-dimethoxyphenyl)-1-((2-phenylpyridin-4-yl)methyl)azepan-2-one] the IC50 (human orexin-2 receptor; compound incubation 120 min) was 58 nM and the IC50 (human orexin-1 receptor; compound incubation 120 min) was 7 nM.
In the case of `COc1cccc(OC)c1C1CCCC(=O)N1Cc1csc(C)n1` (stereo not shown) [Example 71, 6-(2,6-dimethoxyphenyl)-1-((2-methylthiazol-4-yl)methyl)piperidin-2-one], the IC50 (human orexin-2 receptor; compound incubation 120 min) is reported as 6190 nM and the IC50 (human orexin-1 receptor; compound incubation 120 min) is reported as > 12600 nM.
`COc1cccc(OC)c1C1CCCC(=O)N1Cc1ccc(OC(F)(F)F)c(F)c1` (stereo not shown) [Example 160, 6-(2,6-dimethoxyphenyl)-1-(3-fluoro-4-(trifluoromethoxy)benzyl)piperidin-2-one] showed an IC50 (human orexin-2 receptor; [1]) of 18 nM and an IC50 (human orexin-1 receptor; [1]) of 238 nM.
With `CC(C)Oc1cccc(F)c1C1CC(C)C(=O)N1Cc1ccc(OC(F)(F)F)cc1` (stereo not shown) [Example 413, 5-(2-fluoro-6-isopropoxyphenyl)-3-methyl-1-(4-(trifluoromethoxy)benzyl)pyrrolidin-2-one] the IC50 (human orexin-2 receptor; compound incubation 120 min) was 68 nM and the IC50 (human orexin-1 receptor; compound incubation 120 min) was 1500 nM.
For `COc1cccc(OC)c1C1CCCC(=O)N1Cc1cccc(-c2ncc(C)s2)c1` (stereo not shown) [Example 43, 6-(2,6-dimethoxyphenyl)-1-(3-(5-methylthiazol-2-yl)benzyl)piperidin-2-one], the IC50 (human orexin-2 receptor; compound incubation 120 min) was 6 nM and the IC50 (human orexin-1 receptor; compound incubation 120 min) was 6 nM.
With `COc1ccc2c(c1C1CCCC(=O)N1Cc1cccc(-c3csc(C)n3)c1)OCO2` (stereo not shown) [Example 448, 6-(5-methoxybenzo[d][1,3]dioxol-4-yl)-1-(3-(2-methylthiazol-4-yl)benzyl)piperidin-2-one] the IC50 (human orexin-2 receptor; compound incubation 120 min) was 11 nM and the IC50 (human orexin-1 receptor; compound incubation 120 min) was 17 nM.
`COc1cccc(OC)c1C1CCC(=O)N1Cc1ccc2oc3ccccc3c2c1` (stereo not shown) [Example 127, 1-(dibenzo[b,d]furan-2-ylmethyl)-5-(2,6-dimethoxyphenyl)pyrrolidin-2-one] gave an IC50 (human orexin-2 receptor; compound incubation 120 min) of 20 nM and an IC50 (human orexin-1 receptor; compound incubation 120 min) of 14 nM.
For `O=C1CCCC(c2c(F)cccc2F)N1Cc1ccc(OC(F)(F)F)cc1` (stereo not shown) [Example 224, 6-(2,6-difluorophenyl)-1-(4-(trifluoromethoxy)benzyl)piperidin-2-one], the IC50 (human orexin-2 receptor; [1]) was 2470 nM and the IC50 (human orexin-1 receptor; [1]) was 3190 nM.
For `COc1cccc(OC)c1C1CCCC(=O)N1Cc1cccc(-n2nccn2)c1` (stereo not shown) [Example 44, 1-(3-(2H-1,2,3-triazol-2-yl)benzyl)-6-(2,6-dimethoxyphenyl)piperidin-2-one], the IC50 (human orexin-2 receptor; compound incubation 120 min) was 19 nM and the IC50 (human orexin-1 receptor; compound incubation 120 min) was 14 nM.
`COc1cccc(OC)c1C1CCCC(=O)N1Cc1ccc(C(F)(F)F)cc1` (stereo not shown) [Example 163, 6-(2,6-dimethoxyphenyl)-1-(4-(trifluoromethyl)benzyl)piperidin-2-one] gave an IC50 (human orexin-2 receptor; [1]) of 171 nM and an IC50 (human orexin-1 receptor; [1]) of 1190 nM.
`COc1cccc(OC)c1C1CCCC(=O)N1Cc1ccc2c(c1)OCO2` (stereo not shown) [Example 166, 1-(benzo[d][1,3]dioxol-5-ylmethyl)-6-(2,6-dimethoxyphenyl)piperidin-2-one] was tested, and the IC50 (human orexin-2 receptor; [1]) was 549 nM and the IC50 (human orexin-1 receptor; [1]) was 1720 nM.
In the case of `COc1cc(OC)c(C2CCC(=O)N2Cc2ccc(OC(F)(F)F)cc2)c(OC)c1` (stereo not shown) [Example 108, 1-(4-(trifluoromethoxy)benzyl)-5-(2,4,6-trimethoxyphenyl)pyrrolidin-2-one], the IC50 (human orexin-2 receptor; [1]) is reported as 271 nM and the IC50 (human orexin-1 receptor; [1]) is reported as 1930 nM.
`COc1cccc(OC)c1C1CCCC(=O)N1Cc1ccc2oc3ccccc3c2c1` (stereo not shown) [Example 30, 1-(dibenzo[b,d]furan-2-ylmethyl)-6-(2,6-dimethoxyphenyl)piperidin-2-one] showed an IC50 (human orexin-2 receptor; compound incubation 120 min) of 4 nM and an IC50 (human orexin-1 receptor; compound incubation 120 min) of 2 nM.
`COc1cccc(OC)c1C1CCCC(=O)N1Cc1cccc(-c2noc(C)n2)c1` (stereo not shown) [Example 33, 6-(2,6-dimethoxyphenyl)-1-(3-(5-methyl-1,2,4-oxadiazol-3-yl)benzyl)piperidin-2-one] was tested, and the IC50 (human orexin-2 receptor; compound incubation 120 min) was 50 nM and the IC50 (human orexin-1 receptor; compound incubation 120 min) was 39 nM.
With `COc1cccc(OC)c1C1CCC(C)C(=O)N1Cc1ccc(OC(F)(F)F)cc1` (stereo not shown) [Example 216, 6-(2,6-dimethoxyphenyl)-3-methyl-1-(4-(trifluoromethoxy)benzyl)piperidin-2-one] the IC50 (human orexin-2 receptor; [1]) was 894 nM and the IC50 (human orexin-1 receptor; [1]) was 40 nM.
Compound `O=C1CCCC(c2ccccc2-c2ccccc2)N1Cc1cccc(-c2ccccc2)c1` (stereo not shown) [Example 284, 6-([1,1′-biphenyl]-2-yl)-1-([1,1′-biphenyl]-3-ylmethyl)piperidin-2-one] has an IC50 (human orexin-2 receptor; compound incubation 120 min) of 722 nM and an IC50 (human orexin-1 receptor; compound incubation 120 min) of 1450 nM.
In the case of `COc1cccc(OC)c1C1CC(C)C(=O)N1Cc1cccc(OCCF)c1` (stereo not shown) [Example 421, 5-(2,6-dimethoxyphenyl)-1-(3-(2-fluoroethoxy)benzyl)-3-methylpyrrolidin-2-one], the IC50 (human orexin-2 receptor; compound incubation 120 min) is reported as 237 nM and the IC50 (human orexin-1 receptor; compound incubation 120 min) is reported as 498 nM.
`COc1cccc(OC)c1C1CCC(=O)N1Cc1cccc(Oc2ccccc2)c1` (stereo not shown) [Example 117, 5-(2,6-dimethoxyphenyl)-1-(3-phenoxybenzyl)pyrrolidin-2-one] was tested, and the IC50 (human orexin-2 receptor; compound incubation 120 min) was 65 nM and the IC50 (human orexin-1 receptor; compound incubation 120 min) was 211 nM.
`COc1cccc(OC)c1C1CC(C)C(=O)N1Cc1ccc(OC(F)(F)C(F)F)cc1` (stereo not shown) [Example 399, 5-(2,6-dimethoxyphenyl)-3-methyl-1-(4-(1,1,2,2-tetrafluoroethoxy)benzyl)pyrrolidin-2-one] was tested, and the IC50 (human orexin-2 receptor; compound incubation 120 min) was 124 nM and the IC50 (human orexin-1 receptor; compound incubation 120 min) was 172 nM.
`COc1cccc(OC)c1C1CCCC(=O)N1Cc1cc(-c2ccccc2)on1` (stereo not shown) [Example 25, 6-(2,6-dimethoxyphenyl)-1-((5-phenylisoxazol-3-yl)methyl)piperidin-2-one] gave an IC50 (human orexin-2 receptor; compound incubation 120 min) of 902 nM and an IC50 (human orexin-1 receptor; compound incubation 120 min) of 688 nM.
`CCOc1cccc(F)c1[C@@H]1C[C@H](Cl)C(=O)N1Cc1ccc(OC(F)(F)F)c(F)c1` (racemic) [Example 435, rac-(3S*,5S*)-3-chloro-5-(2-ethoxy-6-fluorophenyl)-1-(3-fluoro-4-(trifluoromethoxy)benzyl)pyrrolidin-2-one] showed an IC50 (human orexin-2 receptor; compound incubation 120 min) of 30 nM and an IC50 (human orexin-1 receptor; compound incubation 120 min) of 660 nM.
For `COc1cncc(OC)c1C1CCCC(=O)N1Cc1cccc(-c2nccs2)c1` (stereo not shown) [Example 61, 6-(3,5-dimethoxypyridin-4-yl)-1-(3-(thiazol-2-yl)benzyl)piperidin-2-one], the IC50 (human orexin-2 receptor; compound incubation 120 min) was 26 nM and the IC50 (human orexin-1 receptor; compound incubation 120 min) was 40 nM.
`COc1cccc(OC)c1C1CCCC(=O)N1Cc1csc(Oc2ccccc2)n1` (stereo not shown) [Example 278, 6-(2,6-dimethoxyphenyl)-1-((2-phenoxythiazol-4-yl)methyl)piperidin-2-one] gave an IC50 (human orexin-2 receptor; compound incubation 120 min) of 172 nM and an IC50 (human orexin-1 receptor; compound incubation 120 min) of 250 nM.
`COc1cccc(OC)c1C1CCCC(=O)N1Cc1ccc(F)cc1` (stereo not shown) [Example 157, 6-(2,6-dimethoxyphenyl)-1-(4-fluorobenzyl)piperidin-2-one] showed an IC50 (human orexin-2 receptor; [1]) of 231 nM and an IC50 (human orexin-1 receptor; [1]) of 1460 nM.
`COc1cccc(F)c1C1CC(F)(F)C(=O)N1Cc1ccc2oc3ccccc3c2c1` (stereo not shown) [Example 410, 1-(dibenzo[b,d]furan-2-ylmethyl)-3,3-difluoro-5-(2-fluoro-6-methoxyphenyl)pyrrolidin-2-one] was tested, and the IC50 (human orexin-2 receptor; compound incubation 120 min) was 12 nM and the IC50 (human orexin-1 receptor; compound incubation 120 min) was 143 nM.
`COc1cccc(OC)c1C1CCCC(=O)N1Cc1ccc2sc(C)nc2c1` (stereo not shown) [Example 2, 6-(2,6-dimethoxyphenyl)-1-((2-methylbenzo[d]thiazol-5-yl)methyl)piperidin-2-one] was tested, and the IC50 (human orexin-2 receptor; compound incubation 120 min) was 13 nM and the IC50 (human orexin-1 receptor; compound incubation 120 min) was 26 nM.
Work on `COc1cccc(OC)c1C1CCCCC(=O)N1Cc1cccc(-c2cccnc2)c1` (stereo not shown) [Example 87, 7-(2,6-dimethoxyphenyl)-1-(3-(pyridin-3-yl)benzyl)azepan-2-one] yielded an IC50 (human orexin-2 receptor; compound incubation 120 min) of 46 nM and an IC50 (human orexin-1 receptor; compound incubation 120 min) of 21 nM.
With `COc1cccc(OC)c1C1CCCC(=O)N1Cc1ccnc(-n2cccn2)c1` (stereo not shown) [Example 52, 1-((2-(1H-pyrazol-1-yl)pyridin-4-yl)methyl)-6-(2,6-dimethoxyphenyl)piperidin-2-one] the IC50 (human orexin-2 receptor; compound incubation 120 min) was 80 nM and the IC50 (human orexin-1 receptor; compound incubation 120 min) was 14 nM.
`COc1ccc2cc(CN3C(=O)CCCC3c3c(OC)cccc3OC)ccc2c1` (stereo not shown) [Example 171, 6-(2,6-dimethoxyphenyl)-1-((6-methoxynaphthalen-2-yl)methyl)piperidin-2-one] was tested, and the IC50 (human orexin-2 receptor; [1]) was 66 nM and the IC50 (human orexin-1 receptor; [1]) was 122 nM.
`COc1ccc2nc(C)oc2c1C1CCCC(=O)N1Cc1cccc(-c2csc(C)n2)c1` (stereo not shown) [Example 441, 6-(6-methoxy-2-methylbenzo[d]oxazol-7-yl)-1-(3-(2-methylthiazol-4-yl)benzyl)piperidin-2-one] showed an IC50 (human orexin-2 receptor; compound incubation 120 min) of 62 nM and an IC50 (human orexin-1 receptor; compound incubation 120 min) of 16 nM.
With `COc1cccc(OC)c1C1CCCCC(=O)N1Cc1cccc(Oc2ccccc2)c1` (stereo not shown) [Example 74, 7-(2,6-dimethoxyphenyl)-1-(3-phenoxybenzyl)azepan-2-one] the IC50 (human orexin-2 receptor; compound incubation 120 min) was 98 nM and the IC50 (human orexin-1 receptor; compound incubation 120 min) was 137 nM.
`Cc1nc(-c2cccc(CN3C(=O)CCC3c3ccccc3-c3ccccc3)c2)cs1` (stereo not shown) [Example 286, 5-([1,1′-biphenyl]-2-yl)-1-(3-(2-methylthiazol-4-yl)benzyl)pyrrolidin-2-one] gave an IC50 (human orexin-2 receptor; compound incubation 120 min) of 462 nM and an IC50 (human orexin-1 receptor; compound incubation 120 min) of 104 nM.
`COc1cccc(OC)c1C1CCCC(=O)N1Cc1ccc(-c2ccccc2)s1` (stereo not shown) [Example 18, 6-(2,6-dimethoxyphenyl)-1-((5-phenylthiophen-2-yl)methyl)piperidin-2-one] was tested, and the IC50 (human orexin-2 receptor; compound incubation 120 min) was 38 nM and the IC50 (human orexin-1 receptor; compound incubation 120 min) was 117 nM.
`COc1cccc(OC)c1C1CCCC(=O)N1Cc1cc2ccccc2o1` (stereo not shown) [Example 180, 1-(benzofuran-2-ylmethyl)-6-(2,6-dimethoxyphenyl)piperidin-2-one] was tested, and the IC50 (human orexin-2 receptor; [1]) was 170 nM and the IC50 (human orexin-1 receptor; [1]) was 1450 nM.
`COc1cccc(OC)c1C1CCCC(=O)N1Cc1csc(-c2ccccc2)n1` (stereo not shown) [Example 35, 6-(2,6-dimethoxyphenyl)-1-((2-phenylthiazol-4-yl)methyl)piperidin-2-one] was tested, and the IC50 (human orexin-2 receptor; compound incubation 120 min) was 5 nM and the IC50 (human orexin-1 receptor; compound incubation 120 min) was 28 nM.
